Measured values: article PMC10495264 (Nature Cell Biology, 2023)
“And” between values parts separate entries of the source, which are not always exact repeats. Equal values may be shown once. “Also recorded” adds a separate entry of the source.

Columns and labels:
Snf1 = system: T1, Snf1; assay: Yeast Snf1 kinase activity assay (IVK, Mig1 substrate); format: biochemical, Saccharomyces cerevisiae; parameters: key to In vitro kinase assay Snf1 / In vitro kinase assay Snf1, Mean: Mig1 phosphorylation signal density relative to 0 mM Mal-CoA (=1); conditions: for In vitro kinase assay Snf1, Mean: 0 mM = 1; for In vitro kinase assay Snf1: Replicates 1-3, 0 mM = 1 (Ext. Fig. 10e)
T1 construct: The Snf1 complex was purified from a genomically C-terminally-tagged Snf1 yeast; TAP (C, cleaved yes); made in house; host or cells: S. cerevisiae strain Snf1-TAP (Open Biosystems)
Description: The Snf1 complex was purified from a genomically C-terminally-tagged Snf1 yeast cultured in YPD and washed with water before filtration to induce Snf1 activation. After filtration, the cells were frozen in liquid nitrogen and cryogenically disrupted using a Precellys homogenizer in lysis buffer (50 mM Tris–HCl pH 7.5, 150 mM NaCl, 0.1% NP-40, 10% glycerol, […] and Roche EDTA-free complete protease inhibitor). The cleared lysates were incubated with IgG-coupled Dynabeads (Dynabeads M-270 Epoxy; Invitrogen, Thermo Fisher Scientific) for 2 h at 4 °C. The beads were washed five times with lysis buffer and Snf1 was eluted through cleavage with TEV protease in elution buffer (50 mM Tris–HCl pH 7.5 and 0.5 mM EDTA) and stored at −80 °C after the addition of 10% glycerol. […] To test the effect of Mal-CoA (M4263, Sigma-Aldrich), the kinase reaction was pre-incubated with 2 μl of the compound from a 15× stock solution and threefold serial dilutions for 15 min. […] Proteins were separated by SDS–PAGE and stained with SYPRO Ruby (S4942, Sigma-Aldrich) to assess loading. Substrate phosphorylation was analysed by autoradiography using a Typhoon FLA 9500 phosphorimager (GE Healthcare) and the raw density of the signals was quantified using the gel analysis tool of ImageJ.

[1] = target: T2, mTORC1 containing mTOR^K1218R; assay: mTORC1 IVK with SBP-tagged mTOR^K1218R and HA–Raptor; format: biochemical, human; conditions: presence or absence of 5 mM Mal-CoA
T2 construct: expressed in transfected cells; host or cells: HEK293FT
Description: Briefly, cells of a near-confluent well of a six-well plate were lysed in CHAPS IP buffer (50 mM Tris pH 7.5, 0.3% CHAPS detergent, 150 mM NaCl, 50 mM NaF, 2 mM Na-vanadate and 0.011 g ml^−1 β-glycerophosphate) supplemented with 1×PhosSTOP phosphatase inhibitors and 1×EDTA-free cOmplete protease inhibitors for 10 min on ice, and the samples were clarified by centrifugation (20,000g, 15 min, 4 °C). Each supernatant was split in three equal fractions and each fraction was incubated (4 °C with rotation) with 20 μl of pre-washed Streptavidin Sepharose (cat. no. 90100484, Cytiva) for 1 h. The beads were then washed three times with CHAPS IP wash buffer (50 mM Tris pH 7.5, 0.3% CHAPS, 150 mM NaCl and 50 mM NaF) and either used for IVK assays (‘Mammalian mTORC1 kinase activity assays’ section) or boiled in 2×SDS loading buffer (5 min, 95 °C) and analysed by SDS–PAGE and immunoblotting to assess the stability of the mTOR complex.
In vitro activity assays were performed as described earlier for endogenous mTOR complexes.
Endogenous mTOR was immunoprecipitated in the presence or absence of 1 mM Mal-CoA (added directly in the lysates 5 min previous to addition of the antibody). Co-immunoprecipitation of Raptor and mLST8 assayed by immunoblotting; n = 2 independent experiments. c, Mal-CoA inhibits mTORC1 independently from mTOR malonylation. […] Data are the mean ± s.d. (a) or mean ± s.e.m. […]

TORC1 [2] = target: T3, TORC1 (Saccharomyces cerevisiae, UniProt P35169); assay: Yeast TORC1 kinase activity assays (radioactive IVK, Lst4^Loop substrate); format: biochemical; conditions: for In vitro TORC1 kinase assay - CoA compounds, relative activity, Mean: Fig. 8b; for In vitro TORC1 kinase assay - Mal-CoA/ATP competition, relative activity, Mean: Fig. 8h
T3 construct: made in house; host or cells: S. cerevisiae strain NIC005 ([RL170-2c] LEU2:GFP-TOR1)
Description: TORC1 was purified from yeast cells and radioactive IVK assays were performed essentially as previously described. Briefly, kinase reactions (total volume, 30 μl) were performed with 400 ng of purified His6–Lst4^Loop protein and 60 ng TORC1 in kinase buffer (50 mM HEPES NaOH pH 7.5 and 150 mM NaCl). […] All reactions were carried out at 30 °C for 10 min and stopped with the addition of 3×sample buffer (50 mM Tris–HCl pH 6.8, 5% SDS, 0.05% bromophenol blue, 630 mM DTT and 30% glycerol) and heating at 65 °C for 10 min. Proteins were separated by SDS–PAGE and stained in-gel with SYPRO Ruby (S4942, Sigma-Aldrich) as the loading control. Substrate phosphorylation was analysed by autoradiography using a Typhoon FLA 9500 phosphorimager (GE Healthcare) and the raw density of the signals was quantified using the gel analysis tool of ImageJ.

[3] = system: recombinant human MCD (Mal-CoA decarboxylase); conditions: read-out: apparent Michaelis constant (Km) of recombinant human MCD for Mal-CoA; cited from earlier work
Snf1 (yeast AMPK) = assay: Snf1 activation in yeast cells, p-Snf1^T210/His immunoblot; format: cell-based, Saccharomyces cerevisiae; conditions: cerulenin 20 μM, 2 h, wt Ctrl = 1, Fig. 3h
[4] = system: RagC lysosomal localization; assay: Co-localization of RagC with LAMP2, confocal microscopy; format: cell-based, human; conditions: Ceru 4h, mean of individual cells (ED Fig. 8f); DMSO mean 0.563571
TORC1 [5] = assay: TORC1 activity in yeast cells, p-Sch9^T737/Sch9 immunoblot; format: cell-based, Saccharomyces cerevisiae; conditions: for p-Sch9(T737)/Sch9 (relative TORC1 activity), Mean: yeast, untreated = 1, n = 4, Fig. 2c
[6] = system: total protein malonylation; assay: Total protein malonylation (Mal-K immunoblot) in HEK293FT/HEK293T cells; format: cell-based, human
Description: For standard SDS–PAGE and immunoblotting experiments, cells from a well of a 12-well plate were lysed in 250 μl of ice-cold Triton lysis buffer (50 mM Tris pH 7.5, 1% Triton X-100, 150 mM NaCl, 50 mM NaF, 2 mM Na-vanadate and 0.011 g ml^−1 β-glycerophosphate) supplemented with 1×PhosSTOP phosphatase inhibitors (cat. no. 4906837001, Roche) and 1×cOmplete protease inhibitors (cat. no. 11836153001, Roche) for 10 min on ice. The samples were clarified by centrifugation (20,000g, 15 min, 4 °C) and the supernatants were boiled in 1×SDS sample buffer (5×SDS sample buffer: 350 mM Tris–HCl pH 6.8, 30% glycerol, 600 mM DTT, 12.8% SDS and 0.12% bromophenol blue). The band intensities were quantified using the ImageJ software.

T3 sequence (P35169 whole entry): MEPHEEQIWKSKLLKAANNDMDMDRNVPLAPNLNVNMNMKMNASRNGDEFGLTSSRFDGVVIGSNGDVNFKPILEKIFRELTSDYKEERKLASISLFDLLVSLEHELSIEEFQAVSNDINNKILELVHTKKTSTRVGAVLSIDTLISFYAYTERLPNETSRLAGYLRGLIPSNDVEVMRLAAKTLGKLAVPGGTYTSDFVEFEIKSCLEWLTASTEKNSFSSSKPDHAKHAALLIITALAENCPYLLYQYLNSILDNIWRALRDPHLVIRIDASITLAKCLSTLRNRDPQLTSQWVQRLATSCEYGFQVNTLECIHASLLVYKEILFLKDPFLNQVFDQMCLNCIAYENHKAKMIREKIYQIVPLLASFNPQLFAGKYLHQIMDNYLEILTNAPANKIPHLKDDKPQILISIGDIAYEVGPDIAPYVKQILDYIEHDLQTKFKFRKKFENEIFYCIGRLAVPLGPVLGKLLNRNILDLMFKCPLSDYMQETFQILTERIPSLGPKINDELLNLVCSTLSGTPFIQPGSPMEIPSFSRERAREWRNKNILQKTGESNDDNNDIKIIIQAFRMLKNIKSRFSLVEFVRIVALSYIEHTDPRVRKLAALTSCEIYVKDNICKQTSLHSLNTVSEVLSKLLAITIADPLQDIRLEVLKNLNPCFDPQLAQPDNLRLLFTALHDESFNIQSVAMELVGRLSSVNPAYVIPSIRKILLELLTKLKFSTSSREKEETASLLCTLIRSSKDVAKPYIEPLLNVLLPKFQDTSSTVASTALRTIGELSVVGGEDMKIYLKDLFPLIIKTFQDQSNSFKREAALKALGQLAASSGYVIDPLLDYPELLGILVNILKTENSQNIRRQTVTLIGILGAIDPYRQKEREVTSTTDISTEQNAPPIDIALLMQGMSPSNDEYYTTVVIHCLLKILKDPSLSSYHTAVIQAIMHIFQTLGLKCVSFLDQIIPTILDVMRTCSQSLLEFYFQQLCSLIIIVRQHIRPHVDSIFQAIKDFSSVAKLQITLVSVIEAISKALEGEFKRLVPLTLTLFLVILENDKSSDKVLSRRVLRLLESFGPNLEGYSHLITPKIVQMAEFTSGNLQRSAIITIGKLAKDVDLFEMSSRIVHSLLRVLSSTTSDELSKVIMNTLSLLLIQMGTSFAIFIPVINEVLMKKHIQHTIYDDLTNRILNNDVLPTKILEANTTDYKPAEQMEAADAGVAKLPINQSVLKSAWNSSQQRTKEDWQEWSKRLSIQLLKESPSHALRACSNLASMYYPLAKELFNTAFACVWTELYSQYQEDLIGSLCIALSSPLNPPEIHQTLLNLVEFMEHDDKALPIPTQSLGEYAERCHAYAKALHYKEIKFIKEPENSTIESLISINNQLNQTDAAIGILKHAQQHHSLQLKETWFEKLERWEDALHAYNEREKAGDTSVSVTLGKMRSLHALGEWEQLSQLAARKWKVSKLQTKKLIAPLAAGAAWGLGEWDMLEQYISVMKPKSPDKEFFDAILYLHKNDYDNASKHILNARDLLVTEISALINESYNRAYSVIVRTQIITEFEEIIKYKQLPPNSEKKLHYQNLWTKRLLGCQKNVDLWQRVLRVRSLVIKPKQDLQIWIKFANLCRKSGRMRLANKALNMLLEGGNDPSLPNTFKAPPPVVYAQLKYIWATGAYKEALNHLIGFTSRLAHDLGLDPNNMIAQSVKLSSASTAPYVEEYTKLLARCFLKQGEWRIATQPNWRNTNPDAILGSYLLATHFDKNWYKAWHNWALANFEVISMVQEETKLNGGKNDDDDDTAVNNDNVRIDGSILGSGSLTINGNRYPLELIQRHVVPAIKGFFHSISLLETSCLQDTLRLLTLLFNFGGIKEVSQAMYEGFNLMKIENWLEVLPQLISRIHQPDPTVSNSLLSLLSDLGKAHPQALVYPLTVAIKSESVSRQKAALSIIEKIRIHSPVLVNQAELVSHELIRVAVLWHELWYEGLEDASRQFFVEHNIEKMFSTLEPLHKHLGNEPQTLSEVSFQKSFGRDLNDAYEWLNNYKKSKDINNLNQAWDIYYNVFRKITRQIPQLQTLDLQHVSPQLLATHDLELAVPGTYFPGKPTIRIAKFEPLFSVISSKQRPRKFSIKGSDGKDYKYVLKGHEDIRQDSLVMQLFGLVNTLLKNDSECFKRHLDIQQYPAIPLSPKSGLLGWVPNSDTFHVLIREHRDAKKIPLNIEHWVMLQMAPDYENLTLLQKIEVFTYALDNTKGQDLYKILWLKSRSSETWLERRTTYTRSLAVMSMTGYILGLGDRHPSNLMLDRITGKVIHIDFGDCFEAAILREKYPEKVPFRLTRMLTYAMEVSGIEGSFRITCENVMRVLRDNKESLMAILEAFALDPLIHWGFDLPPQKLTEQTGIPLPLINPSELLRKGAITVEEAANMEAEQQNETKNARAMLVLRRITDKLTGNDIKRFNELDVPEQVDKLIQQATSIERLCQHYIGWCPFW
T3 sequence (Q08921 whole entry partner): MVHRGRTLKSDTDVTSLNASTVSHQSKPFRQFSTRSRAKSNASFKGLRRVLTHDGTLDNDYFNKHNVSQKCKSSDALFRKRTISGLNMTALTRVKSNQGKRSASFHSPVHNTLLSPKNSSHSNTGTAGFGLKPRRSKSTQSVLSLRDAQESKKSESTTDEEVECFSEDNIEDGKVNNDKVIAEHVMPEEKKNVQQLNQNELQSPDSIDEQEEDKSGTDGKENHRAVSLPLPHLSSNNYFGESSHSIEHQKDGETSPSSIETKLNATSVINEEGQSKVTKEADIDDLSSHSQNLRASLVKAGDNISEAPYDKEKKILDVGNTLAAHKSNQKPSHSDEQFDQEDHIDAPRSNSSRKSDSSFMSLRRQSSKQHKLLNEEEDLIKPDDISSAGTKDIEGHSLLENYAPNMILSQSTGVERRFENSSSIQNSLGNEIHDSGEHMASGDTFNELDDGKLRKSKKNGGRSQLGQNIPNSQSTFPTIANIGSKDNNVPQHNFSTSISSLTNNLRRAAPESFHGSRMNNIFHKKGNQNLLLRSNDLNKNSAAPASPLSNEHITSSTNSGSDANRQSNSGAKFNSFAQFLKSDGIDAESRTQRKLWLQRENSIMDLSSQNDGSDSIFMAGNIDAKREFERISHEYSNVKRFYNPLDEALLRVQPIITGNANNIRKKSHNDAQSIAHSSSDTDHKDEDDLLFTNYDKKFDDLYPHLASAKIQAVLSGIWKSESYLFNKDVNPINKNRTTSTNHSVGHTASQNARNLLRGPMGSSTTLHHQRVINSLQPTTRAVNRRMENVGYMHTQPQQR
T3 sequence (P38873 whole entry partner): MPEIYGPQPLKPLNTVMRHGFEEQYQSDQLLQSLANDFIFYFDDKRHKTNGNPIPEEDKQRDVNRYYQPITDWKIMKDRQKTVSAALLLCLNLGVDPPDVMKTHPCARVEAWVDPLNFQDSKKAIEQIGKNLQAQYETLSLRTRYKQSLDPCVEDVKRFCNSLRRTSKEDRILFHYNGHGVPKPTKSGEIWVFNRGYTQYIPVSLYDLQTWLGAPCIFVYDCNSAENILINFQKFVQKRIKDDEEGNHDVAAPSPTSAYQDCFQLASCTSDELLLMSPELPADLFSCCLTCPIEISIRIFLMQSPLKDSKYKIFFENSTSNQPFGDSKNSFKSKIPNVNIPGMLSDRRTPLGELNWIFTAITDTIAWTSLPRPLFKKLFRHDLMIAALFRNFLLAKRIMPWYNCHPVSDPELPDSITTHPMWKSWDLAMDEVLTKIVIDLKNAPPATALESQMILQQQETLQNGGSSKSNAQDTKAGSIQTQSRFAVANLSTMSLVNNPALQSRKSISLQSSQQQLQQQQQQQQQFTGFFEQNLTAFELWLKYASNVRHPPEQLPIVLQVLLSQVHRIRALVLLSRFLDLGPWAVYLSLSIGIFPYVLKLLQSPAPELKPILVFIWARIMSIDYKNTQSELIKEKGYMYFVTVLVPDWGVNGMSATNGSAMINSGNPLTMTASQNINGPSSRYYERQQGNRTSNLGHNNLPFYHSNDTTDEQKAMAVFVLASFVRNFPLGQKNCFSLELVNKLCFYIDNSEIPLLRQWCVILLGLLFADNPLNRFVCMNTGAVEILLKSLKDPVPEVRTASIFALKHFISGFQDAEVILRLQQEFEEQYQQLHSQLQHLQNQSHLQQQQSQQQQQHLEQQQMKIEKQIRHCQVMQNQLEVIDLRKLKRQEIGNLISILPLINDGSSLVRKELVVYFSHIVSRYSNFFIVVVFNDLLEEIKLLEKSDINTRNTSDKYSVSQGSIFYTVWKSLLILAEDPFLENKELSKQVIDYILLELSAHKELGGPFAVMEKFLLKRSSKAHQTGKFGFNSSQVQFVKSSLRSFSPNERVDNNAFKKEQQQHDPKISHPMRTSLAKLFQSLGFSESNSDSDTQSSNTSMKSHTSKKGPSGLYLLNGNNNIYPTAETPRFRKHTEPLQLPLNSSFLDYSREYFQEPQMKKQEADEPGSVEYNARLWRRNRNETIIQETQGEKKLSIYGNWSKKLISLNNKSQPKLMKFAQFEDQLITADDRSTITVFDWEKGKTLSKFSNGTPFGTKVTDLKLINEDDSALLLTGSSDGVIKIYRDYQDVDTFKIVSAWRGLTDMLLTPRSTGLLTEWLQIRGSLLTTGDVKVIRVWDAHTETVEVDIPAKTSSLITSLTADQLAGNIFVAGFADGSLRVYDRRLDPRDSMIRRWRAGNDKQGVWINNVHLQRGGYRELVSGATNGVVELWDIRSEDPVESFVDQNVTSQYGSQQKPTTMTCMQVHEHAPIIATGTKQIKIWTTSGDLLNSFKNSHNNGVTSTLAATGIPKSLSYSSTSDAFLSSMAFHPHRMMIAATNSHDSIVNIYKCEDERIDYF
T3 sequence (P41318 whole entry partner): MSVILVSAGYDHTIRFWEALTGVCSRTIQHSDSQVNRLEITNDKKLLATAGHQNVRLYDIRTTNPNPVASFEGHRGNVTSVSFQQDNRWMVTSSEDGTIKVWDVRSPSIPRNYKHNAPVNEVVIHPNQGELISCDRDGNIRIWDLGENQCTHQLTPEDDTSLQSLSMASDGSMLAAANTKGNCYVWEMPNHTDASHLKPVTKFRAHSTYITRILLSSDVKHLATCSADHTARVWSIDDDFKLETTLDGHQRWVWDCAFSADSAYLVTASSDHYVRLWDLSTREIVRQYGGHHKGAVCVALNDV

**Q.** With `CC(C)(COP(=O)(O)OP(=O)(O)OCC1OC(n2cnc3c(N)ncnc32)C(O)C1OP(=O)(O)O)C(O)C(=O)NCCC(=O)NCCSC(=O)CC(=O)O` (stereo not shown) [Mal-CoA, malonyl-CoA] as the compound, how does the “In vitro kinase assay Snf1, Mean” value (Snf1; Mal-CoA 0.073 mM) read?
**A.** 1.243

**Q.** What about the “In vitro kinase assay Snf1” value (Snf1; Mal-CoA 0.073 mM) of the same compound?
**A.** 0.8487 and 1.878 and 1.003

**Q.** And the “In vitro kinase assay Snf1, Mean” value (Snf1; Mal-CoA 0.22 mM)?
**A.** 0.975

**Q.** And the “In vitro kinase assay Snf1” value (Snf1; Mal-CoA 0.22 mM)?
**A.** 1.111 and 0.9316 and 0.8826

**Q.** And the “In vitro kinase assay Snf1, Mean” value (Snf1; Mal-CoA 2 mM)?
**A.** 0.9179

**Q.** What about the “In vitro kinase assay Snf1” value (Snf1; Mal-CoA 2 mM) of the same compound?
**A.** 1.023 and 1.058 and 0.6736

**Q.** What about the “In vitro kinase assay Snf1, Mean” value (Snf1; Mal-CoA 6 mM) of the same compound?
**A.** 0.7128

**Q.** And the “In vitro kinase assay Snf1” value (Snf1; Mal-CoA 6 mM)?
**A.** 0.7619 and 0.8143 and 0.5621

**Q.** And the “In vitro kinase assay Snf1, Mean” value (Snf1; Mal-CoA […])?
**A.** 0.967

**Q.** And the “inhibition of Snf1 in IVK assay” value (Snf1; purified Snf1, His-tagged Mig1 substrate, IC50 not calculated)?
**A.** does not inhibit; also recorded: did not demonstrate substantial inhibitory effects

**Q.** And the “kinase activity of mTORC1 containing non-malonylatable mTOR^K1218R” value [1]?
**A.** readily inhibited

**Q.** And the IC50 (TORC1 [2])?
**A.** 334 µM

**Q.** And the Ki (TORC1 [2])?
**A.** 760 µM

**Q.** What about the “In vitro TORC1 kinase assay - CoA compounds, relative activity, Mean” value (TORC1 [2]; compound 0.073 mM, normalised to this concentration) of the same compound?
**A.** 1

**Q.** What about the “In vitro TORC1 kinase assay - CoA compounds, relative activity, Mean” value (TORC1 [2]; compound 0.22 mM) of the same compound?
**A.** 0.8807

**Q.** And the “In vitro TORC1 kinase assay - CoA compounds, relative activity, Mean” value (TORC1 [2]; compound 2 mM)?
**A.** 0.6407

**Q.** And the “In vitro TORC1 kinase assay - CoA compounds, relative activity, Mean” value (TORC1 [2]; compound 6 mM)?
**A.** 0.5014

**Q.** What about the “In vitro TORC1 kinase assay - Mal-CoA/ATP competition, relative activity, Mean” value (TORC1 [2]; Mal-CoA 2 mM, ATP 0.015 mM) of the same compound?
**A.** 0.1115

**Q.** What about the “In vitro TORC1 kinase assay - Mal-CoA/ATP competition, relative activity, Mean” value (TORC1 [2]; Mal-CoA 2 mM, ATP 0.044 mM) of the same compound?
**A.** 0.189

**Q.** And the “In vitro TORC1 kinase assay - Mal-CoA/ATP competition, relative activity, Mean” value (TORC1 [2]; Mal-CoA 2 mM, ATP 0.4 mM)?
**A.** 0.6161

**Q.** And the “In vitro TORC1 kinase assay - Mal-CoA/ATP competition, relative activity, Mean” value (TORC1 [2]; Mal-CoA […], ATP 0.015 mM)?
**A.** 0.1191

**Q.** And the “In vitro TORC1 kinase assay - Mal-CoA/ATP competition, relative activity, Mean” value (TORC1 [2]; Mal-CoA […], ATP 0.044 mM)?
**A.** 0.2424

**Q.** And the “In vitro TORC1 kinase assay - Mal-CoA/ATP competition, relative activity, Mean” value (TORC1 [2]; Mal-CoA […], ATP 0.4 mM)?
**A.** 0.6289

**Q.** What about the Km [3] of the same compound?
**A.** 220 to 520 µM

**Q.** For `C/C=C/C/C=C/CCC(=O)[C@H]1O[C@H]1C(N)=O` [cerulenin], which “p-Snf1(T210)/His (Snf1), Mean” value (Snf1 (yeast AMPK); acc1S1157A yeast) is on record?
**A.** 1.0013

**Q.** What about the “p-Snf1(T210)/His (Snf1), Mean” value (Snf1 (yeast AMPK); wt yeast) of the same compound?
**A.** 1.229

**Q.** What about the “RagC/LAMP2 colocalization (Manders' coefficient), Mean” value [4] of the same compound?
**A.** 0.5276

**Q.** What about the “p-Sch9(T737)/Sch9, Mean” value (TORC1 [5]) of the same compound?
**A.** 0.2682 and 0.4097

**Q.** What about the “TORC1 activity (phosphorylation of Sch9) in vivo” value (TORC1 [5]; cerulenin-treated yeast, Fig. 2a,c) of the same compound?
**A.** strongly reduced

**Q.** What about the “p-Sch9(T737)/Sch9 (relative TORC1 activity), Mean” value (TORC1 [5]; 20 μM cerulenin 2h) of the same compound?
**A.** 0.4698

**Q.** And the “p-Sch9(T737)/Sch9 (relative TORC1 activity), Mean” value (TORC1 [5]; 20 μM cerulenin 3h)?
**A.** 0.1772

**Q.** And the “p-Sch9(T737)/Sch9 (relative TORC1 activity), Mean” value (TORC1 [5]; 20 μM cerulenin 4h)?
**A.** 0.1415

**Q.** What about the “Mal-K/Tubulin, Mean” value ([6]; ED Fig. 6c, relative to Luc) of the same compound?
**A.** 1.769

**Q.** What about the “total protein malonylation (Mal-K immunoblot)” value ([6]; HEK293FT cells, cerulenin treatment) of the same compound?
**A.** detectable increase
